For one test, the target named is Grp94 (Canis lupus familiaris, UniProt P41148). Put plainly: FP saturation binding assay of probes, Grp94. Conditions: for assay window, Grp94: mP at saturation minus mP of probe alone. Also noted: species or system canine.
Test [1] has as its target T1, Trap-1 (Homo sapiens, UniProt Q12931).
T1 sequence (Q12931 60-704): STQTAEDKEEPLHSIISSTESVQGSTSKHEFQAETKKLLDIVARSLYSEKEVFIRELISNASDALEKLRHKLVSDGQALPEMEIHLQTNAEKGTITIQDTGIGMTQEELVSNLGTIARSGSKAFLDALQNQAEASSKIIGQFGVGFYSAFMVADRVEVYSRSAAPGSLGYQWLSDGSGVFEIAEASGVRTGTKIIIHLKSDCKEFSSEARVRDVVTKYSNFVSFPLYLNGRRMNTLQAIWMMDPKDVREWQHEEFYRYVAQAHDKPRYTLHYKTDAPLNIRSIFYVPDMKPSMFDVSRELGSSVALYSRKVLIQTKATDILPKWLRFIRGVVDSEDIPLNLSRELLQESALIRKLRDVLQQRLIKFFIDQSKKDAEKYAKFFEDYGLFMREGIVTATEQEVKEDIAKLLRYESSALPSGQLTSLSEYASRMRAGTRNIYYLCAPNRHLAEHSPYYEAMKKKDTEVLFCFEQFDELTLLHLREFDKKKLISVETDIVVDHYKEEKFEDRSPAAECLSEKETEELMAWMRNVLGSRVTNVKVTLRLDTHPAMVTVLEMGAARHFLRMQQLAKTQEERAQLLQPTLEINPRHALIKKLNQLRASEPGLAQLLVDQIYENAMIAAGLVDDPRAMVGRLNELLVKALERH
Conditions: from FP competition IC50, Table 1.

The subject of test [2] is Trap-1. Conditions: cited from earlier work.
A further test concerns Hsp90 in SKBr3 lysate. Put plainly: FP saturation binding of probes to Hsp90 in cancer cell lysate. Also noted: species or system human. Conditions: 4 °C.
The target of another test is Hsp90β (Homo sapiens, UniProt P08238). As to the kind of experiment: FP saturation binding assay of probes, Hsp90β. Conditions: mP at saturation minus mP of probe alone.
In another test the target is Hsp90α (Homo sapiens, UniProt P07900). Put plainly: FP saturation binding assay of probes, Hsp90α. Conditions: mP at saturation minus mP of probe alone.

Chain of Grp94 (P41148 22-804): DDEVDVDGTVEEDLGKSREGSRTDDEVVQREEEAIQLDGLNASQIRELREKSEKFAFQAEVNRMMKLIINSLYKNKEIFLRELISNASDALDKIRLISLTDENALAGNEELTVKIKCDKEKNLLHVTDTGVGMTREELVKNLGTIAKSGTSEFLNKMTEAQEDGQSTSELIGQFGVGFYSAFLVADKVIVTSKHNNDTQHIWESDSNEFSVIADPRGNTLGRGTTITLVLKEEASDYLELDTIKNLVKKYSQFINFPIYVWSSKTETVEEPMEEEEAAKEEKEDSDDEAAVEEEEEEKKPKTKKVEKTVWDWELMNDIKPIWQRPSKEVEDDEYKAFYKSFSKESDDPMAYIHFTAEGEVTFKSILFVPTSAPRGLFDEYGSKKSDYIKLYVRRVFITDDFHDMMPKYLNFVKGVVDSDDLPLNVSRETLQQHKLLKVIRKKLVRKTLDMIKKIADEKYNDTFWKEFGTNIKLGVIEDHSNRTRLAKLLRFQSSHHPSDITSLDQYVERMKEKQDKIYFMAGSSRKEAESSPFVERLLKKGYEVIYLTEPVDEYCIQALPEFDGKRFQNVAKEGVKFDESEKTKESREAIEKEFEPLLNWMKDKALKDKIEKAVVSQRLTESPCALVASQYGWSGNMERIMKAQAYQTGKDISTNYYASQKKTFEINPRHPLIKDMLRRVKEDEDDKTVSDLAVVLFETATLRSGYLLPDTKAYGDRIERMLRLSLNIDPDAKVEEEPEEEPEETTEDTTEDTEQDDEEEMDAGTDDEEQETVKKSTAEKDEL
Chain of Hsp90β (P08238 whole entry): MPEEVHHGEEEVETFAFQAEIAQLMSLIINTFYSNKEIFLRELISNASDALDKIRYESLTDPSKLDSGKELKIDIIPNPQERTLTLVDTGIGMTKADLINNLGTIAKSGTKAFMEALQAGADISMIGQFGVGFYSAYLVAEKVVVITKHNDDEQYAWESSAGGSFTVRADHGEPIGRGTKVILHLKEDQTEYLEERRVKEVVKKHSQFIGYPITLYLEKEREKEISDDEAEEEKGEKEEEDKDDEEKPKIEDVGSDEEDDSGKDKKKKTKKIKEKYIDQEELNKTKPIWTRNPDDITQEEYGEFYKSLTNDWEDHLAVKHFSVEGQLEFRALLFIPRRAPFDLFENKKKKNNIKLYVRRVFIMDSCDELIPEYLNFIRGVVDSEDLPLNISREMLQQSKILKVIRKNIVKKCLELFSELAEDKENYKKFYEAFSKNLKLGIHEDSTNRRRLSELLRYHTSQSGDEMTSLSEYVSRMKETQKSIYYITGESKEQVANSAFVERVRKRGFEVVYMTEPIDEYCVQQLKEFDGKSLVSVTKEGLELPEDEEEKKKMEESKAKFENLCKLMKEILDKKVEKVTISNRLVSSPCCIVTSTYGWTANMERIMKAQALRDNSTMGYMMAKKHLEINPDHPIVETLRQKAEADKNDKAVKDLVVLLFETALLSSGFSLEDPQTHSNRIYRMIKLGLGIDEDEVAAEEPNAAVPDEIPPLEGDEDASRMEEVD

Regarding `CC(C)N(CCCn1c(Sc2cc3c(cc2I)OCO3)nc2c(N)ncnc21)C(=S)Nc1ccc(-c2c3ccc(=O)cc-3oc3cc(O)ccc23)c(C(=O)O)c1` [compound 12], the “preference for Hsp90α, Hsp90β and Trap-1 over Grp94” value at Grp94 (from apparent Kd, saturation binding) worked out at 1 log. For the same compound, the “assay window, Grp94” value on Grp94 was “less than 100 mP”. Regarding `CN(C)c1cc2c(cc1Sc1nc3c(N)nccc3n1CCNCC(C)(C)C)OCO2` [compound 5], at Trap-1 [1], the “decrease in binding affinity for Trap-1 compared to Hsp90” value (shortened to “decrease in binding affinity”) was 50 fold and the “loss of affinity for Trap-1 vs Hsp90” value was about 2 log.

For the compound `CC(C)NCCCn1c(Sc2cc3c(cc2I)OCO3)nc2c(N)ncnc21` [compound 4], on Trap-1 [1], the “decrease in binding affinity” value was 5 fold. `Nc1ncnc2c1ncn2[C@@H]1O[C@H](COP(=O)(O)OP(=O)(O)OP(=O)(O)O)[C@@H](O)[C@H]1O` [ATP]: in the test with Trap-1 [2], the “reported greater affinity of Trap-1 than of Hsp90” value is listed as “approximately 10 fold”. Moreover, the Kd on Trap-1 [2] (read-out: reported binding affinity for Trap-1) is 34.3 µM. Take `COc1c(C)cnc(Cn2cnc3c(Cl)nc(N)nc32)c1C` [compound 3]: the “decrease in binding affinity” value at Trap-1 [1] is on record as 5 fold. In the case of `CCNC(=O)c1noc(-c2cc(C(C)C)c(O)cc2O)c1-c1ccc(CN2CCOCC2)cc1` [compound 7], the “decrease in binding affinity” value at Trap-1 [1] is reported as 2 fold. With `C=CCNC1=C2C[C@@H](C)C[C@H](OC)[C@H](O)[C@@H](C)/C=C(\C)[C@H](OC(N)=O)[C@@H](OC)/C=C\C=C(/C)C(=O)NC(=CC1=O)C2=O` [compound 2, 17-allyl-17-demethoxygeldanamycin], the “loss of affinity for Trap-1 vs Hsp90” value on Trap-1 [1] was about 2 log. With `COC1=C2C[C@@H](C)C[C@H](OC)[C@H](O)[C@@H](C)/C=C(\C)[C@H](OC(N)=O)[C@@H](OC)/C=C\C=C(/C)C(=O)NC(=CC1=O)C2=O` [compound 1, Geldanamycin], the “decrease in binding affinity” value at Trap-1 [1] is reported as 25 fold. With `Nc1ncnc2c1nc(Sc1cc3c(cc1I)OCO3)n2CCCNC(=S)Nc1ccc(-c2c3ccc(=O)cc-3oc3cc(O)ccc23)c(C(=O)O)c1` [16a], the “assay window, Grp94” value on Grp94 is listed as over 150 mP. In the test with Hsp90 in SKBr3 lysate, the “time binding remained stable” value is “more than 24 h” and the “time to reach binding equilibrium with Hsp90” value was at most 8 h. At Hsp90β, the “assay window, Hsp90β” value is listed as over 150 mP. Besides, at Hsp90α, the “assay window, Hsp90α” value is over 150 mP.

Values taken from paper PMC3985615 (Journal of medicinal chemistry, 2013).
